The conditions of data set [1]: following IV administration; cited from earlier work.
Data set [2] is described as follows: VH mimic depot formation and model cargo release assay. It is filed as physicochemical. Particulars: cargo in PNP hydrogel vs PBS bolus, 50 μL into VH mimic; fluorescein 0.25 mg mL^−1, albumin-FITC 10 mg mL^−1. The procedure:
This example describes PNP-2-10 hydrogel depot formation and model cargo release in a VH mimic. The PNP-2-10 hydrogel was prepared as described in Example 1. The present technology is directed to ITV administration of PNP hydrogels in the sensitive environment of the eye. To better visualize and understand how the PNP hydrogels would behave in the VH, depot formation and model cargo release were analyzed in a VH mimic composed of agar and hyaluronic acid (HA). […]
To prepare the VH mimic release assay, 50 μL of PNP hydrogel or PBS loaded with either 0.25 mg mL^−1 fluorescein or 10 mg mL^−1 albumin-FITC (MW˜66 kDa, mol FITC:mol albumin=14) was injected through a 30-gauge needle into a cuvette containing a VH mimic. […] Dye release was quantified using ImageJ software. Images were separated into red, blue, and green channels and the intensity in the green channel within a region inside the hydrogel depot or initial PBS injection site was measured for each time point, denoted Itn. […] The fraction of dye remaining in the gel depot at the final time point was determined by comparing the change in background intensity from times t0 to tplateau for PBS and gel samples:
The percent of dye retained in the gel or PBS injection site at each time point tn was determined by normalizing the intensity as
where tf is the final time point measured and C is a constant defined by […]

In the case of `CCNC(=O)CCC/C=C\C[C@@H]1[C@@H](/C=C/[C@@H](O)CCc2ccccc2)[C@H](O)C[C@@H]1O` [bimatoprost], in data set [1], the elimination half-life was 45 min. For “albumin-FITC: a model protein, MW˜66 kDa, mol FITC:mol albumin=14”, the “increase of effective half-life of retention compared to the control PBS bolus” value in data set [2] is “over 3.7 fold”.
